What was measured:
weaning foals = assay: Ointment test on weaning foals, behavioral observations; format: in vivo, horse; design: increase of vocalizations compared to control treatment: concentration or dose not given beside the values
Experimental: A total of 20 foals divided into two groups (Group A, n=10; Group B, n=10) were weaned in pens of similar size and at the same time of the day (9 am), and were evaluated using a control and pheromone compositions. All horses were between 5 and 6 months of age and mixed breeds, primarily quarter horses. An ointment form of the composition comprising Androstenone was prepared in accordance with Table 7 for administering to the horses in this study.
An ointment composition containing a different pheromone, 2-methylbut-2-enal (RP, 1 mg/mL), was also prepared for administration in a comparison study. An ointment containing no pheromone was prepared and used as control (CON). In group A, 5 foals were used for the control treatment, 3 foals were used for the RP treatment, and 2 foals were used for the Androstenone treatment. In group B, 3 foals were used for the control treatment, 3 foals were used for the RP treatment, and 4 foals were used for the Androstenone treatment. As such, a total of 8 foals were used for the control treatment, 6 foals were used for the RP treatment, and 6 foals were used for the Androstenone treatment in this entire study. Both of the pheromone formulations and the control were applied to each nostril. Control treatments were administered first to prevent any cross contamination to horses during day two.
Behavioral observations were taken during the first 10 minutes (Group A and Group B) and then for four hours (Group B only) after the mares were separated from their foals. Foal behavior was recorded every minute during the first hour (or 10 minutes) and every 5 minutes for the remaining 3 hours of the study for Group B.
Behaviors were not mutually exclusive.
The number of shocks received by the electric fence (as foals tried to return to their mare) and vocalizations were recorded continuously. The total number of observations of each defined behaviors over the first 4 hours in Group B is presented in Table 9, which also provides the percentage of each behavior over the total number of recorded number of behaviors.

barking/jumping dogs = assay: Aerosol spray test on barking/jumping dogs in a kennel; format: in vivo, dog; conditions: for % Effective (no barking/jumping within 1 minute): 6 dogs
Experimental: An aerosol spray composition comprising Androstenone solution was prepared in accordance with Example 1, but was then diluted in isopropyl alcohol to obtain a 1:1,000 dilution of the original concentration. The purpose of the dilution was to mask the odor of the Androstenone, which can be smelled by humans at high concentrations. The spray solution was placed in a metal aerosol can pressurized with propane. A noise making device was also added to the aerosol can. The propellant, when forced through small holes, caused a sound that exceeded 70 decibels.
The efficacy of an aerosol spray composition containing Androstenone was tested in a commercial research facility housing a large number of dogs. A designated person walked the aisles of the kennel with a calm dog on a leash in order to identify those dogs that met the criteria of barking/jumping. The calm dog on the leash was walked in the center aisle between kennels and also sat outside the kennels. To qualify as a test subject, a dog had to repeatedly jump and bark while the calm dot and the person were in the aisle. A total of 15 dogs were chosen as test subjects.
The dogs were separated into two treatment groups. […] The dogs in treatment group #2 were treated, when observed to be engaging in barking/jumping behavior, with a loud spray canister to which the diluted spray composition containing Androstenone had been added. The test period was for 1 minute.

younger pigs = conditions: cited from earlier work
head shy horses = assay: Aerosol spray test on head shy horses, scored 1 through 5; format: in vivo, horse; conditions: for Did not work / Partially worked / Worked well: % of horses
Experimental: The spray solution was placed in a pressurized metal aerosol can. In one group of aerosol cans, a noise making device was also added to the aerosol can. The propellant, when forced through small holes upon pressing the nozzle, caused a sound that exceeded 70 decibels. In a second group of aerosol cans, the noise making device was not added to the can, such that when the spray composition was pumped, no noise was made.
The efficacy of an aerosol spray composition containing Androstenone was tested using thirteen adult horses, all of which were enrolled in this study after being evaluated and categorized as head shy and hard to handle (i.e., observed to move their heads away from the handler when the handler attempted to touch their heads with his hand or a halter).
The thirteen horses were sorted into two treatment groups. One group (Group 1) of 10 horses received the Androstenone spray composition outlined in Table 4 and control (CON isopropyl alcohol) with noise (n=10), while the second group (Group 2) received the Androstenone spray and control without noise (n=3).
In each group, the control composition was administered to the horses first and then the Androstenone spray was administered to the horses the following day immediately before the handler attempted to touch their ears and heads. The horses' behavior was then recorded and evaluated after each administration. The horses were given a numerical score of 1 through 5.

anxious dogs = assay: Heart rate of anxious dogs after Androstenone spray (telemetry); format: in vivo, dog; conditions: four anxious dogs, 10 minutes following spray with about 0.1 μg/mL Androstenone in isopropyl alcohol
Experimental: A study was conducted to determine whether dogs' heart rate increased following application with an aerosol spray containing Androstenone.
An aerosol spray was prepared which contained about 0.1 μg/mL of Androstenone and isopropyl alcohol using the formulation provided in Example 1.
Four dogs determined to be “anxious” were fit with telemetry jackets and transmitters in order to continually monitor heart rate. Dot heart rates were measured for 10 minutes before treatment, 10 minutes following treatment with a control spray (isopropyl alcohol only), and 10 minutes following treatment with the test spray containing Androstenone and isopropyl alcohol.

[1] = Group B, first 4 hours after weaning
[2] = Group B, first 4 hours after weaning, ointment in each nostril
[3] = first 10 minutes post weaning (n = 20)
[4] = first 10 minutes post weaning, Group A and Group B (n = 20)
[5] = Group 1, spray with noise, n=10
[6] = Group 1, spray with noise, n=10, listed as Pheromone
[7] = Group 2, no noise, n=3, listed as Pheromone

Compound: C[C@]12CCC(=O)C[C@@H]1CC[C@@H]1[C@@H]2CC[C@]2(C)C=CC[C@@H]12 [Androstenone, 5-α-androst-16-en-3-one]
- reduction of head shaking compared to control ointment (weaning foals; 4 hour period after weaning): 100%
- reduction of pacing compared to control ointment (weaning foals; 4 hour period after weaning): 100%
- reduction of trotting/running compared to control ointment (weaning foals; 4 hour period after weaning): 100%
- increase of feeding behavior compared to control (weaning foals; 4 hour period after weaning, % of observations eating hay): 98%
- Percent of observations: defecation (weaning foals; [1]): 0.0%
- Percent of observations: drink (weaning foals; [1]): 0.0%
- Percent of observations: feeding (weaning foals; [1]): 11.3%
- Percent of observations: fight (weaning foals; [1]): 0.0%
- Percent of observations: head shake (weaning foals; [1]): 0.0%
- Percent of observations: interact (weaning foals; [1]): 0.8%
- Percent of observations: lying (weaning foals; [1]): 0.0%
- Percent of observations: pace (weaning foals; [1]): 0.0%
- Percent of observations: paw (weaning foals; [1]): 0.0%
- Percent of observations: shock (weaning foals; [1]): 0.8%
- Percent of observations: stand (weaning foals; [1]): 58.8%
- Percent of observations: trot (weaning foals; [1]): 0%
- Percent of observations: vocal (weaning foals; [1]): 19.0%
- Percent of observations: walk (weaning foals; [1]): 9.2%
- Total observations: defecation (weaning foals; [2]): 0
- Total observations: drink (weaning foals; [2]): 0
- Total observations: feeding (weaning foals; [2]): 27
- Total observations: fight (weaning foals; [2]): 0
- Total observations: head shake (weaning foals; [2]): 0
- Total observations: interact (weaning foals; [2]): 2
- Total observations: lying (weaning foals; [2]): 0
- Total observations: pace (weaning foals; [2]): 0
- Total observations: paw (weaning foals; [2]): 0
- Total observations: shock (weaning foals; [2]): 2
- Total observations: stand (weaning foals; [2]): 141
- Total observations: trot (weaning foals; [2]): 0
- Total observations: vocal (weaning foals; [2]): 46
- Total observations: walk (weaning foals; [2]): 22
- Percent of observations: trot (weaning foals; Group B, first 4 hours after weaning, listed as Pheromone A): 0.0%
- Percent of observations: defecation (weaning foals; [3]): 0.0%
- Percent of observations: drink (weaning foals; [3]): 0.0%
- Percent of observations: eat (weaning foals; [3]): 0.0%
- Percent of observations: fight (weaning foals; [3]): 0.0%
- Percent of observations: head shake (weaning foals; [3]): 0.0%
- Percent of observations: interact (weaning foals; [3]): 0.0%
- Percent of observations: lying (weaning foals; [3]): 0.0%
- Percent of observations: pace (weaning foals; [3]): 0.0%
- Percent of observations: paw (weaning foals; [3]): 0.0%
- Percent of observations: shock (weaning foals; [3]): 0.0%
- Percent of observations: stand (weaning foals; [3]): 81.8%
- Percent of observations: trot (weaning foals; [3]): 0.0%
- Percent of observations: vocal (weaning foals; [3]): 37.1%
- Percent of observations: walk (weaning foals; [3]): 18.2%
- Total observations: defecation (weaning foals; [4]): 0
- Total observations: drink (weaning foals; [4]): 0
- Total observations: eat (weaning foals; [4]): 0
- Total observations: fight (weaning foals; [4]): 0
- Total observations: head shake (weaning foals; [4]): 0
- Total observations: interact (weaning foals; [4]): 0
- Total observations: lying (weaning foals; [4]): 0
- Total observations: pace (weaning foals; [4]): 0
- Total observations: paw (weaning foals; [4]): 0
- Total observations: shock (weaning foals; [4]): 0
- Total observations: stand (weaning foals; [4]): 18
- Total observations: trot (weaning foals; [4]): 0
- Total observations: vocal (weaning foals; [4]): 13
- Total observations: walk (weaning foals; [4]): 4
- % Effective (no barking/jumping within 1 minute) (barking/jumping dogs; Group 2: loud spray plus Androstenone, aerosol diluted 1:1,000 in isopropyl alcohol, applied in facial/snout region): 100%
- % Effective (no barking/jumping within 1 minute) (barking/jumping dogs; Group 3: placebo first, then Androstenone spray (re-spray of dogs not responding to placebo)): 83.5%
- % Effective (no barking/jumping within 1 minute), overall Androstenone efficacy (barking/jumping dogs; all dogs that received the Androstenone spray (11 of 12 responded)): 91.7%
- observed effect on barking/jumping (barking/jumping dogs; diluted Androstenone spray, dogs): immediate cessation of barking/jumping
- time barking/jumping stopped before barking resumed (barking/jumping dogs; the one dog that did not respond by the 60 second criterion, after Androstenone spray): 40 s
- effect on aggressive behavior (younger pigs): reduces aggressive behavior
- horses showing improvement, either fully or partially, in head shy behavior (head shy horses; [5]): 80%
- Did not work (head shy horses; [5]): 20%
- Partially worked (head shy horses; [5]): 20%
- Worked well (head shy horses; [5]): 60%
- Did not work (head shy horses; [6]): 20%
- Partially worked (head shy horses; [6]): 20%
- Worked well (head shy horses; [6]): 60%
- Avg. Score (head shy horses; Group 1, spray with noise, n=10, score 1 (little to no effect) to 5 (easier to handle)): 3.9
- horses showing improvement, either fully or partially, in head shy behavior (head shy horses; Group 2, no noise, n=3): 100%
- Did not work (head shy horses; Group 2, no noise, n=3): 0%
- Partially worked (head shy horses; Group 2, no noise, n=3): 33%
- Worked well (head shy horses; Group 2, no noise, n=3): 66%
- Partially worked (head shy horses; [7]): 33%
- Worked well (head shy horses; [7]): 67%
- Avg. Score (head shy horses; Group 2, spray with no noise, n=3, score 1 to 5): 3.9
- effect on heart rate (anxious dogs): no significant effect

Compound: CC=C(C)C=O [RP, 2-methylbut-2-enal, reference compound]
- increase of vocalizations compared to control treatment (weaning foals; 4 hour period after weaning): 372%
- effect on feeding (eating hay) (weaning foals; 4 hour period after weaning, compared to control): decreased
- Percent of observations: defecation (weaning foals; [1]): 0.3%
- Percent of observations: drink (weaning foals; [1]): 0.3%
- Percent of observations: feeding (weaning foals; [1]): 2.9%
- Percent of observations: fight (weaning foals; [1]): 0.0%
- Percent of observations: head shake (weaning foals; [1]): 0.1%
- Percent of observations: interact (weaning foals; [1]): 0.0%
- Percent of observations: lying (weaning foals; [1]): 0.0%
- Percent of observations: pace (weaning foals; [1]): 1.4%
- Percent of observations: paw (weaning foals; [1]): 0.0%
- Percent of observations: shock (weaning foals; [1]): 1.0%
- Percent of observations: stand (weaning foals; [1]): 30.8%
- Percent of observations: trot (weaning foals; [1]): 3.1%
- Percent of observations: vocal (weaning foals; [1]): 58.6%
- Percent of observations: walk (weaning foals; [1]): 1.4%
- Total observations: defecation (weaning foals; [2]): 2
- Total observations: drink (weaning foals; [2]): 2
- Total observations: feeding (weaning foals; [2]): 21
- Total observations: fight (weaning foals; [2]): 0
- Total observations: head shake (weaning foals; [2]): 1
- Total observations: interact (weaning foals; [2]): 0
- Total observations: lying (weaning foals; [2]): 0
- Total observations: pace (weaning foals; [2]): 10
- Total observations: paw (weaning foals; [2]): 0
- Total observations: shock (weaning foals; [2]): 7
- Total observations: stand (weaning foals; [2]): 220
- Total observations: trot (weaning foals; [2]): 22
- Total observations: vocal (weaning foals; [2]): 422
- Total observations: walk (weaning foals; [2]): 10
- increase of vocalizations over controls (weaning foals; first 10 minutes after weaning): 42 fold
- Percent of observations: defecation (weaning foals; [3]): 0.0%
- Percent of observations: drink (weaning foals; [3]): 0.0%
- Percent of observations: eat (weaning foals; [3]): 0.0%
- Percent of observations: fight (weaning foals; [3]): 0.0%
- Percent of observations: head shake (weaning foals; [3]): 0.0%
- Percent of observations: interact (weaning foals; [3]): 0.0%
- Percent of observations: lying (weaning foals; [3]): 0.0%
- Percent of observations: pace (weaning foals; [3]): 6.1%
- Percent of observations: paw (weaning foals; [3]): 0.0%
- Percent of observations: shock (weaning foals; [3]): 3.3%
- Percent of observations: stand (weaning foals; [3]): 24.2%
- Percent of observations: trot (weaning foals; [3]): 66.7%
- Percent of observations: vocal (weaning foals; [3]): 69.7%
- Percent of observations: walk (weaning foals; [3]): 3.0%
- Total observations: defecation (weaning foals; [4]): 0
- Total observations: drink (weaning foals; [4]): 0
- Total observations: eat (weaning foals; [4]): 0
- Total observations: fight (weaning foals; [4]): 0
- Total observations: head shake (weaning foals; [4]): 0
- Total observations: interact (weaning foals; [4]): 0
- Total observations: lying (weaning foals; [4]): 0
- Total observations: pace (weaning foals; [4]): 2
- Total observations: paw (weaning foals; [4]): 0
- Total observations: shock (weaning foals; [4]): 4
- Total observations: stand (weaning foals; [4]): 8
- Total observations: trot (weaning foals; [4]): 22
- Total observations: vocal (weaning foals; [4]): 85
- Total observations: walk (weaning foals; [4]): 1

— patent publication US9480688B2, “Pheromone compositions and their use to modify behavior in different vertebrate species” (priority 2011, dated 2016)
